Key:
[1] = target: Tyrosine-protein kinase Fes/Fps (Homo sapiens) (UniProt P07332); assay: Selectivity interaction (KinaseProfiler screening (Millipore)) EUB0000601a FES; conditions: at 3 µM
Focal adhesion kinase 1 = Focal adhesion kinase 1 (Homo sapiens, UniProt Q05397); assay: Selectivity interaction (ActivX KiNativ screen (kinase selectivity in THP-1 cell lysates)) EUB0000639a PTK2; format: subcellular; conditions: lysate, at 5 µM
[2] = target: [Pyruvate dehydrogenase (acetyl-transferring)] kinase isozyme 1, mitochondrial (Homo sapiens, UniProt Q15118); assay: Selectivity interaction (ActivX KiNativ screen (kinase selectivity in THP-1 cell lysates)) EUB0000639a PDK1; format: subcellular; conditions: lysate
[3] = target: T1, Dual specificity mitogen-activated protein kinase kinase 1 (Homo sapiens, UniProt Q02750); assay: Selectivity interaction (ActivX KiNativ screen (kinase selectivity in THP-1 cell lysates)) EUB0000639a MAP2K1; format: subcellular; conditions: lysate, at 1 µM
T1 sequence (Q02750 whole entry): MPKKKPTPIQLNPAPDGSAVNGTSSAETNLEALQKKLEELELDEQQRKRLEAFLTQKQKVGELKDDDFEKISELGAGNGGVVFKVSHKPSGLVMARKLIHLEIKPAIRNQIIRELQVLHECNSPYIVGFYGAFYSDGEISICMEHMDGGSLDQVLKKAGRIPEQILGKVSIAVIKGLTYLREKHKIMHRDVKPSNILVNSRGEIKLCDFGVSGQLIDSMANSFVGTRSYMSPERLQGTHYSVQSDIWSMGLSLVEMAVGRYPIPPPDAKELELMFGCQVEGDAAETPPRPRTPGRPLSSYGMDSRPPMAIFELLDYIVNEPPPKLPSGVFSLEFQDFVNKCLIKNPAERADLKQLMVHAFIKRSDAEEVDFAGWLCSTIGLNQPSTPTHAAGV

[4] = target: T1, Dual specificity mitogen-activated protein kinase kinase 1; assay: Selectivity interaction (KinomeScan (DiscoverX)) EUB0001550a MAP2K1; conditions: at 1 µM
[5] = target: Interleukin-1 receptor-associated kinase 1 (Homo sapiens) (UniProt P51617); assay: Selectivity interaction (KinomeScan (DiscoverX)) EUB0000695a IRAK1; conditions: at 100 nM
[6] = target: Tyrosine-protein kinase JAK1 (Homo sapiens, UniProt P23458); assay: Selectivity interaction (KinomeScan (DiscoverX)) EUB0000695a JAK1; conditions: at 100 nM
[7] = target: Ribosomal protein S6 kinase alpha-1 (Homo sapiens, UniProt Q15418); assay: Selectivity interaction (KinomeScan (DiscoverX)) EUB0001079a RPS6KA1; conditions: at 1 µM
[8] = target: T2, Phosphorylase b kinase gamma catalytic chain, liver/testis isoform (Homo sapiens) (UniProt P15735); assay: Selectivity interaction (Upstate Kinase Profiler service (Millipore)) EUB0000056c PHKG2; conditions: at 1 µM
T2 sequence (whole entry): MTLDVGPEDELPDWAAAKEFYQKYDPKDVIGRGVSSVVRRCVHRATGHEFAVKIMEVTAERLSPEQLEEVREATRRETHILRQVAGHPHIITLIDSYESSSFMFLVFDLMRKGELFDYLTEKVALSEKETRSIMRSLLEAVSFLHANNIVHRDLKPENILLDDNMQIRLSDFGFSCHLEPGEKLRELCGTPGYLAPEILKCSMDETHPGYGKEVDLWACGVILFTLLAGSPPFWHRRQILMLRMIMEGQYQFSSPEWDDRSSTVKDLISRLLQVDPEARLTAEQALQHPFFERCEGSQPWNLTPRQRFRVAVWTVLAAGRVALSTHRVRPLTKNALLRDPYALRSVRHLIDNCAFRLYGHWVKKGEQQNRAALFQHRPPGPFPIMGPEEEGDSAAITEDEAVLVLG

[9] = target: Tyrosine-protein kinase ABL1 (Homo sapiens, UniProt P00519); assay: Selectivity interaction (KinomeScan (DiscoverX)) EUB0000045b ABL1; conditions: at 10 µM
Sequence of Tyrosine-protein kinase ABL1 (P00519 whole entry): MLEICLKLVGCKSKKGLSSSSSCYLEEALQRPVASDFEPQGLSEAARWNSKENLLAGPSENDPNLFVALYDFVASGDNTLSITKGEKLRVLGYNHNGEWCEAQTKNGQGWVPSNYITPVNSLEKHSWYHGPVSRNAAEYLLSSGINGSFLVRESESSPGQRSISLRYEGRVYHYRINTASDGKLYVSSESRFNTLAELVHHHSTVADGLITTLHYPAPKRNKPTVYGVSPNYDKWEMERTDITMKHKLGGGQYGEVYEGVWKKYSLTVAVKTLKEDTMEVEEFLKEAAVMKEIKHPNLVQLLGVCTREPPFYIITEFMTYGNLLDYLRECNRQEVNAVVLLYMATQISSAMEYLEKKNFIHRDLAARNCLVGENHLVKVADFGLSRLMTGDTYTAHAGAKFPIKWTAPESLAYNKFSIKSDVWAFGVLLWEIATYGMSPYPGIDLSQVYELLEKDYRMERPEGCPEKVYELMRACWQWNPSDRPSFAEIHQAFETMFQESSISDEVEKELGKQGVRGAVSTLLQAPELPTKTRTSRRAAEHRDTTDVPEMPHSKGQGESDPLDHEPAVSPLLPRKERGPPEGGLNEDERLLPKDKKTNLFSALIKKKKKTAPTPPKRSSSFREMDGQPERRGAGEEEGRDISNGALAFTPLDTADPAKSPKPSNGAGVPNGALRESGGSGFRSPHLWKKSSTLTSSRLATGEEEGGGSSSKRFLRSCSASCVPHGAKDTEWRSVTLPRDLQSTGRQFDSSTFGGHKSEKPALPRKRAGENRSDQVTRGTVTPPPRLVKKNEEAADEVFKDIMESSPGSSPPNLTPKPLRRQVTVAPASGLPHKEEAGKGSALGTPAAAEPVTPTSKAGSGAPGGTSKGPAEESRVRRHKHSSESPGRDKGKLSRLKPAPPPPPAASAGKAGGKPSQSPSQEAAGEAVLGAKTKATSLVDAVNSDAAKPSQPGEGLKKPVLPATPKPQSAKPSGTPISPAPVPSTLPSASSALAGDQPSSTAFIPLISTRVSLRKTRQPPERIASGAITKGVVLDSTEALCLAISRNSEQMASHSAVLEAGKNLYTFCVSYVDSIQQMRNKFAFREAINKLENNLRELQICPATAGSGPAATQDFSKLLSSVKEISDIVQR

[10] = target: Serine/threonine-protein kinase 38-like (Homo sapiens) (UniProt Q9Y2H1); assay: Selectivity interaction (ActivX KiNativ screen (ex vivo kinase selectivity in human PBMCs)) EUB0001619a STK38L; format: cell-based; conditions: PBMC, at 1 µM
Sequence of Serine/threonine-protein kinase 38-like (Homo sapiens) (Q9Y2H1 2-464 limits assumed): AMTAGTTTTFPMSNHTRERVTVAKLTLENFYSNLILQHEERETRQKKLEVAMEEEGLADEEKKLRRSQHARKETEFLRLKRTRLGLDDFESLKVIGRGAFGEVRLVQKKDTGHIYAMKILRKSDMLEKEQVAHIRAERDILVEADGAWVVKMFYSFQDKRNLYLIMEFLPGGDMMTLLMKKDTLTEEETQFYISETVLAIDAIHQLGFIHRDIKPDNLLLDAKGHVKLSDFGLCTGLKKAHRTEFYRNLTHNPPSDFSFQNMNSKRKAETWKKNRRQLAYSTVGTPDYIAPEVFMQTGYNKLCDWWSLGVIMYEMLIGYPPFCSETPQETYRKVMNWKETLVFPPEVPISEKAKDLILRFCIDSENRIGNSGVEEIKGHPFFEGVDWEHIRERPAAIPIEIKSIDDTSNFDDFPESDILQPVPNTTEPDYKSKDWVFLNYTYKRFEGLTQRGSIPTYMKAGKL

[11] = target: Cyclin-dependent kinase 4/cyclin D1 (Homo sapiens) (UniProt P11802+P24385); assay: Selectivity interaction (KinomeScan (DiscoverX)) EUB0001619a CDK4; format: protein-complex assay; conditions: at 1 µM
[12] = target: T3, Serine/threonine-protein kinase Nek9 (Homo sapiens) (UniProt Q8TD19); assay: Selectivity interaction (ActivX KiNativ screen (ex vivo kinase selectivity in human PBMCs)) EUB0001619a NEK9; format: cell-based; conditions: PBMC, at 1 µM
T3 sequence (whole entry): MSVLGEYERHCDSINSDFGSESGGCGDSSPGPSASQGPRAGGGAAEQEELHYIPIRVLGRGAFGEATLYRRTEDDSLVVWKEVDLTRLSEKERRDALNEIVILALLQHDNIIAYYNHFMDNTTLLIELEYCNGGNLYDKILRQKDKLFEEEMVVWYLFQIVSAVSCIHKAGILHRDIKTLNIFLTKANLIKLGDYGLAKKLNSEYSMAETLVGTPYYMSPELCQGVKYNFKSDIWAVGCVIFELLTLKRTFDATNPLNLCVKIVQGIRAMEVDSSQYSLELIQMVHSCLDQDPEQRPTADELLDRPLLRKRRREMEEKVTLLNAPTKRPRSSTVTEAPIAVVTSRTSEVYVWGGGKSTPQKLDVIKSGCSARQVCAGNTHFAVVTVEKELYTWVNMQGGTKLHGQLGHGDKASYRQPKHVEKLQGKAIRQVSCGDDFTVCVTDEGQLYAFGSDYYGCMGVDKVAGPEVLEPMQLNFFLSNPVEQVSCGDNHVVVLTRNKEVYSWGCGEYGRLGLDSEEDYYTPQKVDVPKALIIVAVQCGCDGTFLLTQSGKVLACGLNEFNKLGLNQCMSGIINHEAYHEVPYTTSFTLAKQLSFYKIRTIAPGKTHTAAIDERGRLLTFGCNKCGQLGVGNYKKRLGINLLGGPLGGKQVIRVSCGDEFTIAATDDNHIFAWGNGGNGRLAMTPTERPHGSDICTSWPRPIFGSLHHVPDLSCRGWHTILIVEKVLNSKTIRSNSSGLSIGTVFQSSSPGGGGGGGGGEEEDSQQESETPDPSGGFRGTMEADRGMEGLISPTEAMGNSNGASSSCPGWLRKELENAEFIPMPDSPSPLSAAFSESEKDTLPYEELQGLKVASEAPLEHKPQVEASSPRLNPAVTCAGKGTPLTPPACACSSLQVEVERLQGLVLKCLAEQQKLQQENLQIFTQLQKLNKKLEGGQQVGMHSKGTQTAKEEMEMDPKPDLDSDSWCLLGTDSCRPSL

[13] = target: Phosphatidylinositol 4,5-bisphosphate 3-kinase catalytic subunit beta isoform (Homo sapiens) (UniProt P42338); assay: Selectivity interaction (ActivX KiNativ screen (ex vivo kinase selectivity in human PBMCs)) EUB0001619a PIK3CB; format: cell-based; conditions: PBMC, at 1 µM
Sequence of Phosphatidylinositol 4,5-bisphosphate 3-kinase catalytic subunit beta isoform (Homo sapiens) (P42338 whole entry, looked up, canonical isoform): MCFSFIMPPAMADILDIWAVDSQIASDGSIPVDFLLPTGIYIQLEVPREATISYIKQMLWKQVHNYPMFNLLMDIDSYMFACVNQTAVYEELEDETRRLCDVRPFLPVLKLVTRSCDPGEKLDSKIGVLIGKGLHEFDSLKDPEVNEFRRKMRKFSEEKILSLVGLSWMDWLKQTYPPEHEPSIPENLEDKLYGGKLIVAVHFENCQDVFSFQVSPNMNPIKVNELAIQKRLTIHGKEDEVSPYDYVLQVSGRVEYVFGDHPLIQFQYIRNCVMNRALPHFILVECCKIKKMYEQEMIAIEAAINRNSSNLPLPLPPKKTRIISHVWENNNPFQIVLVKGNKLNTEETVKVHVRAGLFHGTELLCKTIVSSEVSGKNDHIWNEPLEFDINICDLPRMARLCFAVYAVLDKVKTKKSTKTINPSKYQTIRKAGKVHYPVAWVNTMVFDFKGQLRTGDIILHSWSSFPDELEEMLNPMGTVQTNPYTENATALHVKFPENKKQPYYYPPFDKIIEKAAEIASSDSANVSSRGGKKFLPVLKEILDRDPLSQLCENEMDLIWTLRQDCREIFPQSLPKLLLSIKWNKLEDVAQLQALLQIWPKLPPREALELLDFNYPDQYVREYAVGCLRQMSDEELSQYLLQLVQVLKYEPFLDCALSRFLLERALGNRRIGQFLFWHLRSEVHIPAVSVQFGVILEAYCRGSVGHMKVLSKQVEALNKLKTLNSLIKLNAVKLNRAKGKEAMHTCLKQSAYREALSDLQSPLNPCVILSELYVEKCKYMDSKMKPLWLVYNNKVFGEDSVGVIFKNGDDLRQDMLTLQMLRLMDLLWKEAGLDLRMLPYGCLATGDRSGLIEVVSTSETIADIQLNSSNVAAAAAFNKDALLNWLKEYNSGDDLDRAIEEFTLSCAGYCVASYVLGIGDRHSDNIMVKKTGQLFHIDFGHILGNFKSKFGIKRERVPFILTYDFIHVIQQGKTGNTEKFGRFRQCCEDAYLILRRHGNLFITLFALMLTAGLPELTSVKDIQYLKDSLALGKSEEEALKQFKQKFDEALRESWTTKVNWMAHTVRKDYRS

[14] = target: Mitogen-activated protein kinase kinase kinase kinase 1 (Homo sapiens) (UniProt Q92918); assay: Selectivity interaction (ActivX KiNativ screen (ex vivo kinase selectivity in human PBMCs)) EUB0001619a MAP4K1; format: cell-based; conditions: PBMC, at 1 µM
[15] = target: Cyclin-dependent kinase 11B (Homo sapiens) (UniProt P21127); assay: Selectivity interaction (KinomeScan (DiscoverX)) EUB0000618a CDK11B; conditions: at 10 µM
[16] = target: Protein kinase C delta type (Homo sapiens) (UniProt Q05655); assay: Selectivity interaction (KinomeScan (DiscoverX)) EUB0000618a PRKCD; conditions: at 10 µM
[17] = target: MAP kinase-activated protein kinase 2 (Homo sapiens, UniProt P49137); assay: Selectivity interaction (KinomeScan (DiscoverX)) EUB0000618a MAPKAPK2; conditions: at 10 µM
Sequence of MAP kinase-activated protein kinase 2 (P49137 whole entry, looked up): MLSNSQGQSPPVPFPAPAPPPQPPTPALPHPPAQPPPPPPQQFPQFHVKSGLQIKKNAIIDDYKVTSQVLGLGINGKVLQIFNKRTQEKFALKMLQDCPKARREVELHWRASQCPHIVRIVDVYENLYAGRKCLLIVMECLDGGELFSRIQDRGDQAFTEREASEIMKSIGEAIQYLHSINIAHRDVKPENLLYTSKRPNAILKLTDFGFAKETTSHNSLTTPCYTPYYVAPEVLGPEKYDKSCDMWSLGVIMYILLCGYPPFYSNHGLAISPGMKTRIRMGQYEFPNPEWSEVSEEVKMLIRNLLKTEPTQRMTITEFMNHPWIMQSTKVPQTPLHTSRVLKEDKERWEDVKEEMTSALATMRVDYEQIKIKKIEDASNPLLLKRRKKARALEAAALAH

[18] = system: Fibroblast growth factor receptor 3 (Homo sapiens), P22607 [G697C]; assay: (§1) Selectivity interaction (KinomeScan (DiscoverX)) EUB0000607a FGFR3; conditions: at 10 µM
[19] = target: Fibroblast growth factor receptor 3 (Homo sapiens, UniProt P22607); assay: as §1; conditions: at 10 µM
Sequence of Fibroblast growth factor receptor 3 (P22607 23-806 limits assumed): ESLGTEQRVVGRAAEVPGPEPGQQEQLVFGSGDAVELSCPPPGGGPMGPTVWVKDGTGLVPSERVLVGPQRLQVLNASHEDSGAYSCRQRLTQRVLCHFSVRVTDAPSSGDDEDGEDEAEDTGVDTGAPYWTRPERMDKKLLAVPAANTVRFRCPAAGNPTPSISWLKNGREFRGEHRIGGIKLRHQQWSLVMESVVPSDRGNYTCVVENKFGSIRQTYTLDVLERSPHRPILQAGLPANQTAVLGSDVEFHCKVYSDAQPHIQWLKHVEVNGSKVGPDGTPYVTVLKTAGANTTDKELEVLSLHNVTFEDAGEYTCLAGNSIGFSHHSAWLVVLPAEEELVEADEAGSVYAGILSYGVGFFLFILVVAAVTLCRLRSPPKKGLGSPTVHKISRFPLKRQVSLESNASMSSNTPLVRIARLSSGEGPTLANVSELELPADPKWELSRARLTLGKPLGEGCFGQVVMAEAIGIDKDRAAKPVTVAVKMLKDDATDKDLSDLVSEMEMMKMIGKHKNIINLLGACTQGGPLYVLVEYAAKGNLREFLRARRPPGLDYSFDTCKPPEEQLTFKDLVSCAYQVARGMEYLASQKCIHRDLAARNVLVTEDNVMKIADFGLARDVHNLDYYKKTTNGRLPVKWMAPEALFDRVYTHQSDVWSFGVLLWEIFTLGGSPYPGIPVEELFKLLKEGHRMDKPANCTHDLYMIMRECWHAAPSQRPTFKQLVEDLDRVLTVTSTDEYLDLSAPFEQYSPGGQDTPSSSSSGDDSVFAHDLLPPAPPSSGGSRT

Sequence of Tyrosine-protein kinase Fes/Fps (Homo sapiens) (P07332 whole entry): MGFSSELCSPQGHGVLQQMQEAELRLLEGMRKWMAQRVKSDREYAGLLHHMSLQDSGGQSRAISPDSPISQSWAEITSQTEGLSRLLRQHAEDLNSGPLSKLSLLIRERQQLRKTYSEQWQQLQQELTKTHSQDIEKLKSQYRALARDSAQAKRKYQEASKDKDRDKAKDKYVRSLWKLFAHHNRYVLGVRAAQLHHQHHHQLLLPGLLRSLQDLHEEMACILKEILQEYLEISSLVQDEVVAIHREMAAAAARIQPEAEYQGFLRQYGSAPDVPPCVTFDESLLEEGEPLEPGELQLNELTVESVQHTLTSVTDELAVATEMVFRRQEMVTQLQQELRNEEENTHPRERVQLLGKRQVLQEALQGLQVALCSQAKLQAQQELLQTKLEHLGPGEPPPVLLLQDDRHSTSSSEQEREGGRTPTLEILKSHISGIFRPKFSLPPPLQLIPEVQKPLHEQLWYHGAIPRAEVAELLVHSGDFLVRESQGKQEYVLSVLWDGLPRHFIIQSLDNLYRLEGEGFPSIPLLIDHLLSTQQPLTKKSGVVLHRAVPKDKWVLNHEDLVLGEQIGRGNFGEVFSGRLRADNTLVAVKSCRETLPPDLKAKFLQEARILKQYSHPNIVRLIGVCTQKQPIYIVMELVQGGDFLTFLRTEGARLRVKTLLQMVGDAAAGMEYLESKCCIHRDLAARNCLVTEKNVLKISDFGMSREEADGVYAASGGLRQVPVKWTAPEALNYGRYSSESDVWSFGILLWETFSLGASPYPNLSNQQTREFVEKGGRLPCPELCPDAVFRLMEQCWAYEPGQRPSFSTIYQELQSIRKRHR

CCc1cc(Nc2nccc(-c3c(-c4ccc(OC)c(C(=O)Nc5c(F)cccc5F)c4)nc4ccccn34)n2)c(OC)cc1N1CCC(N2CCN(S(C)(=O)=O)CC2)CC1
% of inhibition [1]: 82%

CC[C@@H]1[C@H](F)C(=O)N[C@@H]1COc1nccc2cc(C(N)=O)c(OC)cc12 [ZIMLOVISERTIB]
% of inhibition (Focal adhesion kinase 1): -9.4%
% of inhibition ([2]; at 0.01 µM): 1.3%
% of inhibition ([2]; at 0.04 µM): 12.1%
% of inhibition ([2]; at 0.2 µM): 12.1%
% of inhibition ([2]; at 1 µM): 12.5%
% of inhibition ([2]; at 5 µM): 28.1%
% of inhibition [3]: 0.2%

CN(C)CC#Cc1ccc2[nH]c3c(c2c1)-c1nc(N)ncc1CCC3
% of control [4]: 4.5%

Cc1cc(F)c(C(=O)Nc2cccc(-c3nncn3C(C)C)n2)cc1-n1cnc(C2CC2)c1
% of control [5]: 96%
% of control [6]: 60%

Nc1cnc(N2CCc3cc(S(=O)(=O)Nc4c(F)cc(Cl)cc4F)cc(N4CCCC4=O)c32)nc1 [TP-020n]
% of control [7]: 100%

Cc1ccc(-c2ccc3c(ccc4sc5c(c43)NC[C@@H](C)NC5=O)n2)cn1
% of inhibition [8]: 58%

C=CC(=O)Nc1cc(-n2c(=O)ccc3cnc4ccc(-c5ccc(NS(C)(=O)=O)cc5)cc4c32)ccc1C
% of control [9]: 79%

N#Cc1cccc(-c2c[nH]c3ncnc(N4CCOCC4)c23)c1
% of inhibition [10]: 22%
% of control [11]: 65%
% of inhibition [12]: -16%
% of inhibition [13]: -3%
% of inhibition [14]: 7%

O[C@H]1CC[C@H](Nc2ncc3nc(Nc4c(F)cc(F)cc4F)n([C@H]4CCOC4)c3n2)CC1
% of control [15]: 91%
% of control [16]: 93%
% of control [17]: 71%

CNC(=O)Nc1ccc(-c2nc(N3CC4CCC(C3)O4)c3cnn(C4CCC5(CC4)OCCO5)c3n2)cc1
% of control [18]: 74%
% of control [19]: 83%
